Patent US20070036793A1, “Methods for use of an lkb1/strad7mo25 complex” (priority 2003, published 2007)

Assays:
AMPK [1] = target: T1, AMPK (Homo sapiens, UniProt Q13131); assay: Activation and Thr-172 phosphorylation of endogenous AMPK in HeLa cells with or without stably expressed LKB1; format: cell-based; settings: earlier unpublished results
T1 construct: Endogenous AMPK was immunoprecipitated from the cell extracts and assayed; endogenous in cells; host or cells: HeLa cells (control, or stably expressing wild type or kinase-dead LKB1)
T1 sequence (Q13131 whole entry): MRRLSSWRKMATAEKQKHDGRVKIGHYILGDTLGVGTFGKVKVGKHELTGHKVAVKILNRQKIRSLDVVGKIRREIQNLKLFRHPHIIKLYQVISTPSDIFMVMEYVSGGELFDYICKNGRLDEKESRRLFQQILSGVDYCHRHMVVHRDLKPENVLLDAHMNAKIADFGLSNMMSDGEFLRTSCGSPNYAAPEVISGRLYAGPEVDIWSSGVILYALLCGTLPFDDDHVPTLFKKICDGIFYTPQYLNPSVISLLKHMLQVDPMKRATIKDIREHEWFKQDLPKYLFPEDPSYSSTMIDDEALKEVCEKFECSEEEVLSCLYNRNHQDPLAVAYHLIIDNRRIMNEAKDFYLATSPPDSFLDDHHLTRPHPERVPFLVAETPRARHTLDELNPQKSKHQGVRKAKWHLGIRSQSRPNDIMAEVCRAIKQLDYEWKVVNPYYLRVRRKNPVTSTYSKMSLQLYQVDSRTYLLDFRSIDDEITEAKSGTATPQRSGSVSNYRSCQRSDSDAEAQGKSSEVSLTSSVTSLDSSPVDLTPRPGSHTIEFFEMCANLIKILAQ
T1 sequence (Q9Y478 2-270 partner limits assumed): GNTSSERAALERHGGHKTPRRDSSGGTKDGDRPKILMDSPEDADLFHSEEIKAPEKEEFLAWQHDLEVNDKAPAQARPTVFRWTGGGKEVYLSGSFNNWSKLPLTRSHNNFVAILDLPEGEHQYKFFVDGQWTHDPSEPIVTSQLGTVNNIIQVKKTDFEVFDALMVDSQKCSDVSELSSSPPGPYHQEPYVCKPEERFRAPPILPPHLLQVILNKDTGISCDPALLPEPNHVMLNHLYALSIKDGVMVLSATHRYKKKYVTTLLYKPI
T1 sequence (P54619 whole entry partner): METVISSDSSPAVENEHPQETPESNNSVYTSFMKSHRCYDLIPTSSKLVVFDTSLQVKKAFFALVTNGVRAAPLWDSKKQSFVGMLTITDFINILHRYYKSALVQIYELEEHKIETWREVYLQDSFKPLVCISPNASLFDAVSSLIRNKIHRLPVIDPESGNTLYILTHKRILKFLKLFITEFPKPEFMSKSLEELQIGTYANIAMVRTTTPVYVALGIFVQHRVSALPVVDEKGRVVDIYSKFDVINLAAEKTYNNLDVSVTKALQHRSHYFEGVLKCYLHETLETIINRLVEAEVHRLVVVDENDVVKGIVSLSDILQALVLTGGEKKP

AMPK [2] = assay: AMPK activation by drugs in other cell types; format: cell-based
[3] = system: AMPK-related kinases (NUAK2, QIK, QSK, SIK, MARK1, MARK2/3, MARK4); assay: Activity of endogenous AMPK-related kinases immunoprecipitated from HeLa cells after phenformin; format: cell-based, human; settings: HeLa cells (control, wild type or kinase inactive LKB1), 10 mM phenformin, 1 h
Procedure: FIG. 29. Activity of AMPK-related kinases In HeLa cells. […] AMPKα1 and AMPK-related kinases were immunoprecipitated from the cell lysates, and in vitro kinase activity towards the AMARA peptide was measured as described in Materials and Methods (Example 4). To confirm equal expression of the kinases in each sample, cell lysates (AMPKα1, MARK2/3 and MARK4) or immunoprecipitated proteins (NUAK2, QIK, QSK, SIK and MARK1) were subjected to SDS-PAGE and western immunoblot analysis. All AMPK-related kinases migrated with the expected molecular mass. In the case of AMPKα1, cell lysates were immunoblotted with a pThr172 antibody (P-AMPK), that recognises the phosphorylated T-loop. Results shown are average + SD of 2-4 assays and are representative of at least two independent experiments.
Cell culture, stimulation and cell lysis. […] Protein concentrations were determined by the Bradford method with bovine serum albumin as the standard (Bradford, 1976).
0.1-1 mg of Hela or MEF lysate protein was incubated at 4° C. for 1 h on a shaking platform with 5 μg of the corresponding antibody, which had been previously conjugated to 5 μl of protein G-Sepharose. The immunoprecipitates were washed twice with 1 ml of Lysis Buffer containing 0.5 M NaCl, and twice with 1 ml of Buffer A. Phosphotransferase activity towards the AMARA peptide was then measured in a total assay volume of 50 μl as described above.

| Compound | activation of AMPK (AMPK [1]) | activation of AMPK compared with metformin (AMPK [2]) | activity of AMPK-related kinases [3] |
| --- | --- | --- | --- |
| NC(=O)c1ncn([C@@H]2O[C@H](CO)[C@@H](O)[C@H]2O)c1N [AICA riboside, 5-aminoimidazole-4-carboxamide (AICA) riboside] | not activated | – | – |
| [H]/N=C(/N)N/C(=N/[H])NCCc1ccccc1 [phenformin] | – | more rapidly and more potently than metformin | none of the AMPK-related kinases were significantly activated |
